Laboratory results: patent publication US7816522B2, “Triazolone derivatives” (Eisai Co., Ltd., priority 2006, dated 2010)
pIC50: −log10 of the molar value. Counter-ions that a name gives are not always drawn.

Molecular target: T1, human clotting factor VIIa (Homo sapiens, UniProt P08709)
T1 construct: a human clotting factor VIIa (hereinafter, “Factor VIIa”) purified sample; purchased Enzyme Research Laboratories HFVIIa
Assay: Inhibitory activity against clotting factor VIIa (chromogenic substrate Spectrozyme FVIIa, TF/Factor VIIa enzyme solution)
Format: biochemical
Details: human Factor VIIa 5 nmol/L with human TF 10 nmol/L, room temperature 40 minutes, 405 nm
Method in brief: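 Human Factor VIIa (5 nmol/L) with human TF (10 nmol/L) in Tris-BSA buffer pH 7.4 containing 15 mmol/L CaCl2 and cephalin, with Spectrozyme FVIIa substrate. Reaction 40 min at room temperature; 4-nitroanilide read at 405 nm. IC50 by non-linear regression over 100 μmol/L–0.1 nmol/L.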

T1 sequence (P08709 213-466 limits assumed): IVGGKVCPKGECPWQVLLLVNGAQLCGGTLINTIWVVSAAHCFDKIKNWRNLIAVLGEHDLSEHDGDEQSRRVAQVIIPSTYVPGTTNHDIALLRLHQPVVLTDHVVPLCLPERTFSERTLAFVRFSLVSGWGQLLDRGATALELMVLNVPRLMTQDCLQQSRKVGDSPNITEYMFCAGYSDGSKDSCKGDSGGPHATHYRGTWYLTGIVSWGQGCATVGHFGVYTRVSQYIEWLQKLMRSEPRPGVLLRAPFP
T1 sequence (P08709 61-212 limits assumed): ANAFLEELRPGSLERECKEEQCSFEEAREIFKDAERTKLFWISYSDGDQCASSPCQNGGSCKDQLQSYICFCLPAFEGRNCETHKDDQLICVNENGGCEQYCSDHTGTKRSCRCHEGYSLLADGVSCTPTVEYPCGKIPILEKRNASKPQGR
T1 sequence (P13726 33-295 partner): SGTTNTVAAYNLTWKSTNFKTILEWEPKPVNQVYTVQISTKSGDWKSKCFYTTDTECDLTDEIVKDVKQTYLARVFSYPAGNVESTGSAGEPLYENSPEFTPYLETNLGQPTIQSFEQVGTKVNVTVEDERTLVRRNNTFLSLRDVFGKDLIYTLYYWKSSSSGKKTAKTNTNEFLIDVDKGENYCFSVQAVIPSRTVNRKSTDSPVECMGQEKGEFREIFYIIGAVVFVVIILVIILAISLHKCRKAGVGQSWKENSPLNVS

SMILES	pIC50
CCOc1cc(OC)c(F)c(C(Nc2ccc(C(=N)N)cc2)c2nn(-c3cccnn3)c(=O)[nH]2)c1 (racemic) [Example 71, (R) and (S)-4-{[(5-ethoxy-2-fluoro-3-methoxyphenyl)-(5-oxo-1-pyridazin-3-yl-4,5-dihydro-1H-[1,2,4]triazol-3-yl)methyl]amino}benzamidine acetate]	8.11
COc1cc(COCCF)cc(C(Nc2ccc(C(=N)N)cc2)c2nn(-c3ncccn3)c(=O)[nH]2)c1 (racemic) [Example 72, (R) and (S)-4-({[3-(2-fluoroethoxymethyl)-5-methoxyphenyl]-(5-oxo-1-pyrimidin-2-yl-4,5-dihydro-1H-[1,2,4]triazol-3-yl)methyl}amino)benzamidine acetate]	8.00
COCc1cc(OC)cc(C(Nc2ccc(C(=N)N)cc2)c2nn(-c3cccnn3)c(=O)[nH]2)c1 (racemic) [Example 73, (R) and (S)-4-{[(3-methoxy-5-methoxymethylphenyl)-(5-oxo-1-pyridazin-3-yl-4,5-dihydro-1H-[1,2,4]triazol-3-yl)methyl]amino}benzamidine trifluoroacetate]	7.95
CCc1cc(OCCF)cc(C(Nc2ccc(C(=N)N)cc2)c2nn(-c3ncccn3)c(=O)[nH]2)c1 (racemic) [Example 74, (R) and (S)-4-({[3-ethyl-5-(2-fluoroethoxy)phenyl]-(5-oxo-1-pyrimidin-2-yl-4,5-dihydro-1H-[1,2,4]triazol-3-yl)methyl}amino)benzamidine acetate]	8.48
CCc1cc(OC)cc(C(Nc2ccc(C(=N)N)cc2)c2nn(-c3ncccn3)c(=O)[nH]2)c1 (racemic) [Example 75, (R) and (S)-4-{[(3-ethyl-5-methoxyphenyl)-(5-oxo-1-pyrimidin-2-yl-4,5-dihydro-1H-[1,2,4]triazol-3-yl)methyl]amino}benzamidine acetate]	8.28
CCc1cc(OCCOC)cc(C(Nc2ccc(C(=N)N)cc2)c2nn(-c3ncccn3)c(=O)[nH]2)c1 (racemic) [Example 76, (R) and (S)-4-({[3-ethyl-5-(2-methoxyethoxy)phenyl]-(5-oxo-1-pyrimidin-2-yl-4,5-dihydro-1H-[1,2,4]triazol-3-yl)methyl}amino)benzamidine trifluoroacetate]	8.28
CCOc1cc(OCCF)cc(C(Nc2ccc(C(=N)N)cc2)c2nn(-c3ncccn3)c(=O)[nH]2)c1 (racemic) [Example 78, (R) and (S)-4-({[3-ethoxy-5-(2-fluoroethoxy)phenyl]-(5-oxo-1-pyrimidin-2-yl-4,5-dihydro-1H-[1,2,4]triazol-3-yl)methyl}amino)benzamidine trifluoroacetate]	7.90
CCOc1cc(OCC)cc(C(Nc2ccc(C(=N)N)cc2)c2nn(-c3ncccn3)c(=O)[nH]2)c1 (racemic) [Example 79, (R) and (S)-4-{[(3,5-diethoxyphenyl)-(5-oxo-1-pyrimidin-2-yl-4,5-dihydro-1H-[1,2,4]triazol-3-yl)methyl]amino}benzamidine trifluoroacetate]	8.12
CCOc1cc(OCCF)cc(C(Nc2ccc(C(=N)N)cc2)c2nn(-c3cccnn3)c(=O)[nH]2)c1 (racemic) [Example 80, (R) and (S)-4-({[3-ethoxy-5-(2-fluoroethoxy)phenyl]-(5-oxo-1-pyridazin-3-yl-4,5-dihydro-1H-[1,2,4]triazol-3-yl)methyl}amino)benzamidine acetate]	8.17
COc1cc(C(Nc2ccc(C(=N)N)cc2)c2nn(-c3ncccn3)c(=O)[nH]2)ccc1OCCF (racemic) [Example 81, (R) and (S)-4-({[4-(2-fluoroethoxy)-3-methoxyphenyl]-(5-oxo-1-pyrimidin-2-yl-4,5-dihydro-1H-[1,2,4]triazol-3-yl)methyl}amino)benzamidine acetate]	7.73
COc1cc(C(Nc2ccc(C(=N)N)cc2)c2nn(-c3ncccn3)c(=O)[nH]2)cc2c1OCC2OC (racemic) [Example 82, (R) and (S)-4-({(3,7-dimethoxy-2,3-dihydrobenzofuran-5-yl)-(5-oxo-1-pyrimidin-2-yl-4,5-dihydro-1H-[1,2,4]triazol-3-yl)methyl}amino)benzamidine acetate]	8.12
C=CCOc1cc(COC)cc(C(Nc2ccc(C(=N)N)cc2)c2nn(-c3ncccn3)c(=O)[nH]2)c1 (racemic) [Example 85, 4-{[(R) and (S)-(3-allyloxy-5-methoxymethylphenyl)-(5-oxo-1-pyrimidin-2-yl-4,5-dihydro-1H-[1,2,4]triazol-3-yl)methyl]amino}benzamidine acetate]	7.82
COc1cc(C(Nc2ccc(C(=N)N)cc2)c2nn(-c3cccnn3)c(=O)[nH]2)cc(OC)c1OC (racemic) [Example 88, 4-{[(R) and (S)-(5-oxo-1-pyridazin-3-yl-4,5-dihydro-1H-[1,2,4]triazol-3-yl)-(3,4,5-trimethoxyphenyl)methyl]amino}benzamidine trifluoroacetate]	8.07
COc1cc(C(Nc2ccc(C(=N)N)cc2)c2nn(-c3cccnn3)c(=O)[nH]2)cc(OCCF)c1OC (racemic) [Example 89, 4-{[(R) and (S)-[3-(2-fluoroethoxy)-4,5-dimethoxyphenyl]-(5-oxo-1-pyridazin-3-yl-4,5-dihydro-1H-[1,2,4]triazol-3-yl)methyl]amino}benzamidine acetate]	8.04
COCCOc1cc(OC)cc(C(Nc2ccc(C(=N)N)cc2)c2nn(-c3ncccn3)c(=O)[nH]2)c1F (racemic) [Example 92, 4-{[(R) and (S)-[2-fluoro-5-methoxy-3-(2-methoxyethoxy)phenyl]-(5-oxo-1-pyrimidin-2-yl-4,5-dihydro-1H-[1,2,4]triazol-3-yl)methyl]amino}benzamidine acetate]	7.94
COc1cc(C)cc(C(Nc2ccc(C(=N)N)cc2)c2nn(-c3ncccn3)c(=O)[nH]2)c1 (racemic) [Example 93, 4-{[(R) and (S)-(3-methoxy-5-methylphenyl)-(5-oxo-1-pyrimidin-2-yl-4,5-dihydro-1H-[1,2,4]triazol-3-yl)methyl]amino}benzamidine acetate]	7.52
COCCOc1cc(C)cc(C(Nc2ccc(C(=N)N)cc2)c2nn(-c3ncccn3)c(=O)[nH]2)c1 (racemic) [Example 94, 4-{[(R) and (S)-[3-(2-methoxyethoxy)-5-methylphenyl]-(5-oxo-1-pyrimidin-2-yl-4,5-dihydro-1H-[1,2,4]triazol-3-yl)methyl]amino}benzamidine acetate]	7.90
COc1ccccc1-n1nc(C(Nc2ccc(C(=N)N)cc2)c2cc3c(c(OC)c2)OCOC3)[nH]c1=O (racemic) [Example 95, 4-({(R) and (S)-(8-methoxy-4H-benzo[1,3]dioxin-6-yl)-[1-(2-methoxyphenyl)-5-oxo-4,5-dihydro-1H-[1,2,4]triazol-3-yl]methyl}amino)benzamidine acetate]	8.89
CCOc1ccc(F)c(C(Nc2ccc(C(=N)N)cc2)c2nn(-c3ncccn3)c(=O)[nH]2)c1 (racemic) [Example 96, 4-{[(R) and (S)-(5-ethoxy-2-fluorophenyl)-(5-oxo-1-pyrimidin-2-yl-4,5-dihydro-1H-[1,2,4]triazol-3-yl)methyl]amino}benzamidine acetate]	7.77
Cc1cc(C(Nc2ccc(C(=N)N)cc2)c2nn(-c3ncccn3)c(=O)[nH]2)cc2c1OCOC2 (racemic) [Example 97, 4-{[(R) and (S)-(8-methyl-4H-benzo[1,3]dioxin-6-yl)-(5-oxo-1-pyrimidin-2-yl-4,5-dihydro-1H-[1,2,4]triazol-3-yl)methyl]amino}benzamidine acetate]	7.95
N=C(N)c1ccc(NC(c2nn(-c3ncccn3)c(=O)[nH]2)c2cc(OCCF)cc(OCCF)c2F)cc1 (racemic) [Example 98, 4-{[(R) and (S)-[2-fluoro-3,5-bis-(2-fluoroethoxy)phenyl]-(5-oxo-1-pyrimidin-2-yl-4,5-dihydro-1H-[1,2,4]triazol-3-yl)methyl]amino}benzamidine acetate]	7.54
COc1cc(OCC(F)F)c(F)c(C(Nc2ccc(C(=N)N)cc2)c2nn(-c3ncccn3)c(=O)[nH]2)c1 (racemic) [Example 99, 4-{[(R) and (S)-[3-(2,2-difluoroethoxy)-2-fluoro-5-methoxyphenyl]-(5-oxo-1-pyrimidin-2-yl-4,5-dihydro-1H-[1,2,4]triazol-3-yl)methyl]amino}benzamidine acetate]	8.41
COc1cc(OCCF)c(F)c(C(Nc2ccc(C(=N)N)cc2)c2nn(-c3cnccn3)c(=O)[nH]2)c1 (racemic) [Example 100, 4-{[(R) and (S)-[2-fluoro-3-(2-fluoroethoxy)-5-methoxyphenyl]-(5-oxo-1-pyrazin-2-yl-4,5-dihydro-1H-[1,2,4]triazol-3-yl)methyl]amino}benzamidine acetate]	8.28
COc1cc(F)c(C(Nc2ccc(C(=N)N)cc2)c2nn(-c3cnccn3)c(=O)[nH]2)cc1OC (racemic) [Example 101, 4-{[(R) and (S)-(2-fluoro-4,5-dimethoxyphenyl)-(5-oxo-1-pyrazin-2-yl-4,5-dihydro-1H-[1,2,4]triazol-3-yl)methyl]amino}benzamidine acetate]	7.96
COc1cc(C(Nc2ccc(C(=N)N)cc2)c2nn(-c3cnccn3)c(=O)[nH]2)cc2c1OCOC2 (racemic) [Example 102, 4-{[(R) and (S)-(8-methoxy-4H-benzo[1,3]dioxin-6-yl)-(5-oxo-1-pyrazin-2-yl-4,5-dihydro-1H-[1,2,4]triazol-3-yl)methyl]amino}benzamidine acetate]	7.94
COc1cc(OCF)c(F)c(C(Nc2ccc(C(=N)N)cc2)c2nn(-c3ncccn3)c(=O)[nH]2)c1 (racemic) [Example 103, 4-{[(R) and (S)-(2-fluoro-3-fluoromethoxy-5-methoxyphenyl)-(5-oxo-1-pyrimidin-2-yl-4,5-dihydro-1H-[1,2,4]triazol-3-yl)methyl]amino}benzamidine acetate]	8.05
